Consider 3 compounds from US8772307B2, “Substituted spiro compounds and their use for producing pain-relief medicaments” (Gruenenthal GmbH, priority 2005, dated 2014).

Data set [1] concerns the target T1, rat-species vanilloid receptor 1 (VR1/TRPV1) (Rattus norvegicus, UniProt O35433).
T1 construct: endogenous in cells; host or cells: primary cells dissociated from rat dorsal root ganglia (DRG)
Briefly: Functional testing on vanilloid receptor 1 (VR1/TRPV1): FLIPR Ca2+ inflow assay in rat dorsal root ganglia cells (% activation / % inhibition vs capsaicin). The note with it: for inhibition at 10 µM: inhibition compared to 10 μM CP (capsaicin); for activation at 10 µM: stimulation compared to 10 μM CP (capsaicin). The class given is cell-based. The method in brief:
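Rat dorsal root ganglion cells, dissociated with collagenase and trypsin, were plated at 3×10^5/mL on laminin-coated plates in NGF-containing HAMS F12 and cultured 2-3 days at 37° C. Ca2+ inflow read by Fluo-4 fluorescence on FLIPR; test compounds at 10 μM referenced to 10 μM capsaicin.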

For another data set, the target named is T2, vanilloid receptor (VR1) (Homo sapiens, UniProt Q8NER1).
T2 construct: expressed in transfected cells; host or cells: CHO K1 cells (ECACC), stably transfected
Kind of data set: Functional testing on vanilloid receptor (VR1): FLIPR Ca2+ inflow assay in CHO K1 cells stably transfected with the VR1 gene. The note with it: for inhibition at 10 µM: CHO-K1, inhibition compared to 10 μM CP (capsaicin); for activation at 10 µM: CHO-K1, stimulation compared to 10 μM CP (capsaicin). Format: cell-based. The method in brief:
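CHO K1 cells stably expressing VR1, loaded with Fluo-4 (2 μM, 30 min, 37° C); peak Ca²⁺ fluorescence read on FLIPR. Compound (10 μM) added first, agonism as % of 10 μM capsaicin signal; after 5 min, 100 nM capsaicin added, % inhibition calculated relative to maximal inhibition with 10 μM capsaicin.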

T2 sequence (Q8NER1 whole entry): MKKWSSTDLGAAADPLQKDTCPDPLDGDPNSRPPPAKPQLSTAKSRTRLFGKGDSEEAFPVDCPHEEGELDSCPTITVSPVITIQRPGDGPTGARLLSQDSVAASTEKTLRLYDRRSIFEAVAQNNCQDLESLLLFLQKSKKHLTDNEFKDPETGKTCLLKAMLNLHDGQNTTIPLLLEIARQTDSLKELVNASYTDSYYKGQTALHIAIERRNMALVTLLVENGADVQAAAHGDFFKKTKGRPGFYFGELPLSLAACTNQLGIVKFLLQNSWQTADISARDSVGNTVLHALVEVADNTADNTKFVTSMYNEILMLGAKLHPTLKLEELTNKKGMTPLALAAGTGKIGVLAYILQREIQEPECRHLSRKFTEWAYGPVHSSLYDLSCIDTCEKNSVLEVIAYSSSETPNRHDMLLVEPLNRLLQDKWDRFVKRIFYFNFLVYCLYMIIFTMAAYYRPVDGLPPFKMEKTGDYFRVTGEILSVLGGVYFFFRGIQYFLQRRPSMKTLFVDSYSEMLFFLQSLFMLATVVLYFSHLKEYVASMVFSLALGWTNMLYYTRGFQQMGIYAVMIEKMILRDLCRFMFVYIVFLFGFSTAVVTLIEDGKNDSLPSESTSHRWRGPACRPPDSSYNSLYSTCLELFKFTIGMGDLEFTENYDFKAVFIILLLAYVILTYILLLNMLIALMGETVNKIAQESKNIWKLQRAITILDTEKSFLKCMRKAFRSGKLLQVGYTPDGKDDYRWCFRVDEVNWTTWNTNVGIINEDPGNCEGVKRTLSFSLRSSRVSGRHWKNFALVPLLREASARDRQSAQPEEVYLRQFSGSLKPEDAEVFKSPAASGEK
T1 sequence (O35433 whole entry): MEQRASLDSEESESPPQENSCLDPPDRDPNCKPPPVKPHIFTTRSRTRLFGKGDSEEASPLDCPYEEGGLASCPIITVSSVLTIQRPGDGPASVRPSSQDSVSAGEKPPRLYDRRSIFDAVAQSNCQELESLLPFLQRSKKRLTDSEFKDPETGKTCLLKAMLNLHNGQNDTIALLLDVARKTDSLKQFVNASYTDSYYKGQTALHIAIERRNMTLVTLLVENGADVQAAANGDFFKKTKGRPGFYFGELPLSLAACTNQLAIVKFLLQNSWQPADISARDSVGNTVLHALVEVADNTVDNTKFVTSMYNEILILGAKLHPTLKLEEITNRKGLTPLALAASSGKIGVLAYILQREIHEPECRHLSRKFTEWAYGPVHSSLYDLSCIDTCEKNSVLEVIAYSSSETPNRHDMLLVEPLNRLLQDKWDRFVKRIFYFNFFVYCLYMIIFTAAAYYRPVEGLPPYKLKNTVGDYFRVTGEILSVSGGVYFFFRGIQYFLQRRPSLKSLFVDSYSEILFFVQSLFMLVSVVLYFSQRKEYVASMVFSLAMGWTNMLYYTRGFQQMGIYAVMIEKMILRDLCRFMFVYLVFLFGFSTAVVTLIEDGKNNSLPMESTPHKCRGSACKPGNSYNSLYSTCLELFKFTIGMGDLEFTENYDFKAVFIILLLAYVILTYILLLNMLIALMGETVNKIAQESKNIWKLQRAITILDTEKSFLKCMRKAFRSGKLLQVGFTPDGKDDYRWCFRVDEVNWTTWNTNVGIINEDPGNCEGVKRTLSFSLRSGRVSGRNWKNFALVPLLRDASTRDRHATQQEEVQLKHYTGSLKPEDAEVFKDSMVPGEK

Broadly, the melting point is the temperature of the solid-liquid transition. In the case of `CC(C)(C)c1ccc2[nH]c(N3CCC4(CC3)CC(c3ccccc3)=NO4)nc2c1` [Compound 379, 8-(5-tert-butyl-1H-benzimidazol-2-yl)-3-phenyl-1-oxa-2,8-diazaspiro[4.5]dec-2-ene], the melting point was in the range of 230 to 236 °C.
A word on the inhibition: it is the drop in the measured response relative to a control, in per cent. Higher therefore signals a response far below the control. As to `CC(C)(C)c1ccc(C2=NOC3(CCN(C(=O)Nc4ccc(Cl)cc4)CC3)C2)cc1` [Compound 42, 3-(4-tert-butylphenyl)-1-oxa-2,8-diazaspiro[4.5]dec-2-ene-8-carboxylic acid-(4-chlorophenyl)amide], in data set [1], the inhibition at 10 µM is 39.9% and the activation at 10 µM was -0.73%. On vanilloid receptor (VR1), 10 µM produced 2.57% inhibition and the activation at 10 µM is -0.22%.
For `CC(C)(C)c1ccc(/C(=C/C(=O)N2CCC3(CC2)CC(c2cccc(F)c2)=NO3)c2ccc(Cl)c(Cl)c2)cc1` [Compound 360, (Z)-3-(4-tert-butylphenyl)-3-(3,4-dichlorophenyl)-1-(3-(3-fluorophenyl)-1-oxa-2,8-diazaspiro[4.5]dec-2-en-8-yl)prop-2-en-1-one], in that order: 80%, 3%, 12% and 0%.
